Here are results for eleven compounds from US8231888B2, “Isoxazolines for controlling invertebrate pests” (priority 2005, dated 2012).

Format in all cases: in vivo
For assay [1], the system named is diamondback moth (Plutella xylostella). Nature of the assay: Test A: control of diamondback moth on radish plant, foliar spray. The note with it: sprayed at 250 and/or 50 ppm, 6 days, 25° C.; no asterisk (not limited to 250 ppm). The source says:
For evaluating control of diamondback moth (Plutella xylostella) the test unit consisted of a small open container with a 12-14-day-old radish plant inside. This was pre-infested with about 50 neonate larvae that were dispensed into the test unit via corn cob grits using a bazooka inoculator. The larvae moved onto the test plant after being dispensed into the test unit.
(§1) Test compounds were formulated using a solution containing 10% acetone, 90% water and 300 ppm X-77™ Spreader Lo-Foam Formula non-ionic surfactant containing alkylarylpolyoxyethylene, free fatty acids, glycols and isopropanol (Loveland Industries, Inc. Greeley, Colo., USA). The formulated compounds were applied in 1 mL of liquid through a SUJ2 atomizer nozzle with 1/8 JJ custom body (Spraying Systems Co. Wheaton, Ill., USA) positioned 1.27 cm (0.5 inches) above the top of each test unit. All experimental compounds in these tests were sprayed at 250 and/or 50 ppm, and the test was replicated three times. After spraying of the formulated test compound, each test unit was allowed to dry for 1 h and then a black, screened cap was placed on top. The test units were held for 6 days in a growth chamber at 25° C. and 70% relative humidity. Plant feeding damage was then visually assessed based on foliage consumed and a pest mortality rating was also counted and calculated for each test unit.

Assay [2] has as its system fall armyworm (Spodoptera frugiperda). Nature of the assay: Test B: control of fall armyworm on corn (maize) plant, foliar spray. Conditions: sprayed at 250 and/or 50 ppm; no asterisk (not limited to 250 ppm). How it is done: as §1
For evaluating control of fall armyworm (Spodoptera frugiperda) the test unit consisted of a small open container with a 4-5-day-old corn (maize) plant inside. This was pre-infested (using a core sampler) with 10-15 1-day-old larvae on a piece of insect diet. Test compounds were formulated and sprayed at 250 and/or 50 ppm as described for Test A and replicated three times. After spraying, the test units were maintained in a growth chamber and then the control efficacy was rated for each test unit as described for Test A.

Assay [3] has as its system western flower thrips (Frankliniella occidentalis). In words: Test D: control of western flower thrips on Soleil bean plant, contact and/or systemic. The note with it: 6 days, 25° C. How it is done:
as §1
For evaluating control of the western flower thrips (Frankliniella occidentalis) through contact and/or systemic means, the test unit consisted of a small open container with a 5-7 day old Soleil Bean plant inside. Test compounds were formulated and sprayed at 250 and/or 50 ppm, and the test was replicated three times as described for Test A. After spraying, the test units were allowed to dry for 1 hour and then 22-27 adult thrips were added to each unit and then a black, screened cap was placed on top. The test units were held for 6 days at 25° C. and 45-55% relative humidity. A mortality rating was assessed along with a plant damage rating for each test unit.

For assay [4], the system named is cat flea (Ctenocephalides felis Bouche). In words: Test E: control of cat flea on orally dosed CD-1 mouse. The note with it: 10 mg/kg oral, fleas applied 2 h after dosing, mortality 48 hours after flea application. The method, then:
For evaluating control of the cat flea (Ctenocephalides felis Bouche), a CD-1® mouse (about 30 g, male, obtained from Charles River Laboratories, Wilmington, Mass.) was orally dosed with a test compound in an amount of 10 mg/kg solubilized in propylene glycol/glycerol formal (60:40). Two hours after oral administration of the test compound, approximately 8 to 16 adult fleas were applied to each mouse. The fleas were then evaluated for mortality 48 hours after flea application to the mouse.

The mark [5] stands for this setting: sprayed at 250 and/or 50 ppm, no asterisk (not limited to 250 ppm).
[6] abbreviates: asterisk: observed only at 250 ppm.

As to `O=C(NCc1ccccn1)c1ccc(C2=NOC(c3cc(Cl)cc(Cl)c3)(C(F)(F)F)C2)c2ccccc12` (stereo not shown) [Compound 2], the “control efficacy (20% or less feeding damage or 80% or more mortality)” value in assay [1], in assay [2] and in assay [3] (setting [5]) was “very good to excellent levels of control efficacy” throughout. The compound also had a flea mortality in assay [4] of no less than 30%.
Regarding `O=C(NCc1ccccn1)c1ccc(C2=NOC(c3cc(Br)cc(Br)c3)(C(F)(F)F)C2)c2ccccc12` (stereo not shown) [Compound 26], the “control efficacy (20% or less feeding damage or 80% or more mortality)” value in assay [1], in assay [2] and in assay [3] (setting [5]) was “very good to excellent levels of control efficacy” each time.
Regarding `CC(NC(=O)c1ccc(C2=NOC(c3cc(Cl)cc(Cl)c3)(C(F)(F)F)C2)c2ccccc12)C(C)(C)C` (stereo not shown) [Compound 34], the “control efficacy (20% or less feeding damage or 80% or more mortality)” value in assay [1], in assay [2] and in assay [3] (setting [6]) was “very good to excellent levels of control efficacy” each time.
As to `O=C(NCCO)c1ccc(C2=NOC(c3cc(Cl)cc(Cl)c3)(C(F)(F)F)C2)c2ccccc12` (stereo not shown) [Compound 35], the “control efficacy (20% or less feeding damage or 80% or more mortality)” value in assay [1], in assay [2] and in assay [3] (setting [5]) was “very good to excellent levels of control efficacy” in each case.
As for `O=C(N[C@H]1CCc2ccccc21)c1ccc(C2=NOC(c3cc(Cl)cc(Cl)c3)(C(F)(F)F)C2)c2ccccc12` (stereo partly shown) [Compound 39], the “control efficacy (20% or less feeding damage or 80% or more mortality)” value in assay [1], in assay [2] and in assay [3] (setting [6]) was “very good to excellent levels of control efficacy” throughout.
As for `COCCNC(=O)c1ccc(C2=NOC(c3cc(Cl)cc(Cl)c3)(C(F)(F)F)C2)c2ccccc12` (stereo not shown) [Compound 41], the “control efficacy (20% or less feeding damage or 80% or more mortality)” value in assay [1], in assay [2] and in assay [3] (setting [5]) was “very good to excellent levels of control efficacy” each time.
As to `CCOC(=O)CNC(=O)c1ccc(C2=NOC(c3cc(Cl)cc(Cl)c3)(C(F)(F)F)C2)c2ccccc12` (stereo not shown) [Compound 42], the “control efficacy (20% or less feeding damage or 80% or more mortality)” value in assay [1], in assay [2] and in assay [3] (setting [5]) was “very good to excellent levels of control efficacy” throughout.
Turning to `O=C(NNc1ccccc1)c1ccc(C2=NOC(c3cc(Cl)cc(Cl)c3)(C(F)(F)F)C2)c2ccccc12` (stereo not shown) [Compound 46], the “control efficacy (20% or less feeding damage or 80% or more mortality)” value in assay [1], in assay [2] and in assay [3] (setting [6]) was “very good to excellent levels of control efficacy” in each case.
On to `COC(=O)[C@@H](NC(=O)c1ccc(C2=NOC(c3cc(Cl)cc(Cl)c3)(C(F)(F)F)C2)c2ccccc12)C(C)C` (stereo partly shown) [Compound 49], for which the “control efficacy (20% or less feeding damage or 80% or more mortality)” value in assay [1], in assay [2] and in assay [3] (setting [5]) was “very good to excellent levels of control efficacy” throughout.
Consider `O=C(CNC(=O)c1ccc(C2=NOC(c3cc(Cl)cc(Cl)c3)(C(F)(F)F)C2)c2ccccc12)NCC(F)(F)F` (stereo not shown) [Compound 51], for which the “control efficacy (20% or less feeding damage or 80% or more mortality)” value in assay [1], in assay [2] and in assay [3] (setting [5]) was “very good to excellent levels of control efficacy” in each case.
Turning to `O=C(NCc1ccccn1)c1ccc(C2=NOC(c3cc(Cl)cc(Cl)c3)(C(F)(F)F)C2)c2ccncc12` (stereo not shown) [Compound 104, 5-[5-(3,5-dichlorophenyl)-4,5-dihydro-5-(trifluoromethyl)-3-isoxazolyl]-N-(2-pyridinylmethyl)-8-isoquinolinecarboxamide], the “control efficacy (20% or less feeding damage or 80% or more mortality)” value in assay [1], in assay [2] and in assay [3] (setting [5]) was “very good to excellent levels of control efficacy” throughout.
